Data as given in ChEMBL document CHEMBL1121670, “Aporphines. 34. (-)-2,10,11-Trihydroxy-N-n-propylnoraporphine, a novel dopaminergic aporphine alkaloid with anticonvulsant activity” (1981).

How the values were obtained:
[1] = species: Mus musculus; experiment: Evaluated for audiogenic seizures in DBA/ 2 mice, in the protection against paroxysimal EEG at an interval of 20 minutes; type: functional
[2] = tested on: Papio papio; experiment: Duration of protection for abolition of myoclonic responses to photic stimulation in the baboon (Papio papio) at 0.5 mg/kg; Duration of protection ranges from 30-45 min; type: functional
[3] = species: Mus musculus; experiment: Evaluated for audiogenic seizures in DBA/ 2 mice, in the protection against paroxysimal EEG at an interval of 30 minutes; type: functional; conditions: 0.5 h
[4] = tested on: Papio papio; experiment: Duration of protection for abolition of myoclonic responses to photic stimulation in the baboon (Papio papio) at 0.2 mg/kg; Duration of protection ranges from 180-300 min; type: functional
[5] = biological target: Adenylate cyclase type 5 (Homo sapiens) (UniProt O95622); experiment: Compound was evaluated for the elicited effect on adenylate cyclase activity in homogenates of carp retina at 10 uM; type: functional, tissue-based; conditions: Cyprinus carpio
[6] = tested on: Papio papio; experiment: Duration of protection for abolition of myoclonic responses to photic stimulation in the baboon (Papio papio) at 0.2 mg/kg; type: functional
[7] = species: Mus musculus; experiment: Evaluated for audiogenic seizures in DBA/ 2 mice, in the protection against paroxysimal EEG at an interval of 60 minutes; type: functional; conditions: 1 h

Chain of Adenylate cyclase type 5 (Homo sapiens) (O95622 whole entry, looked up): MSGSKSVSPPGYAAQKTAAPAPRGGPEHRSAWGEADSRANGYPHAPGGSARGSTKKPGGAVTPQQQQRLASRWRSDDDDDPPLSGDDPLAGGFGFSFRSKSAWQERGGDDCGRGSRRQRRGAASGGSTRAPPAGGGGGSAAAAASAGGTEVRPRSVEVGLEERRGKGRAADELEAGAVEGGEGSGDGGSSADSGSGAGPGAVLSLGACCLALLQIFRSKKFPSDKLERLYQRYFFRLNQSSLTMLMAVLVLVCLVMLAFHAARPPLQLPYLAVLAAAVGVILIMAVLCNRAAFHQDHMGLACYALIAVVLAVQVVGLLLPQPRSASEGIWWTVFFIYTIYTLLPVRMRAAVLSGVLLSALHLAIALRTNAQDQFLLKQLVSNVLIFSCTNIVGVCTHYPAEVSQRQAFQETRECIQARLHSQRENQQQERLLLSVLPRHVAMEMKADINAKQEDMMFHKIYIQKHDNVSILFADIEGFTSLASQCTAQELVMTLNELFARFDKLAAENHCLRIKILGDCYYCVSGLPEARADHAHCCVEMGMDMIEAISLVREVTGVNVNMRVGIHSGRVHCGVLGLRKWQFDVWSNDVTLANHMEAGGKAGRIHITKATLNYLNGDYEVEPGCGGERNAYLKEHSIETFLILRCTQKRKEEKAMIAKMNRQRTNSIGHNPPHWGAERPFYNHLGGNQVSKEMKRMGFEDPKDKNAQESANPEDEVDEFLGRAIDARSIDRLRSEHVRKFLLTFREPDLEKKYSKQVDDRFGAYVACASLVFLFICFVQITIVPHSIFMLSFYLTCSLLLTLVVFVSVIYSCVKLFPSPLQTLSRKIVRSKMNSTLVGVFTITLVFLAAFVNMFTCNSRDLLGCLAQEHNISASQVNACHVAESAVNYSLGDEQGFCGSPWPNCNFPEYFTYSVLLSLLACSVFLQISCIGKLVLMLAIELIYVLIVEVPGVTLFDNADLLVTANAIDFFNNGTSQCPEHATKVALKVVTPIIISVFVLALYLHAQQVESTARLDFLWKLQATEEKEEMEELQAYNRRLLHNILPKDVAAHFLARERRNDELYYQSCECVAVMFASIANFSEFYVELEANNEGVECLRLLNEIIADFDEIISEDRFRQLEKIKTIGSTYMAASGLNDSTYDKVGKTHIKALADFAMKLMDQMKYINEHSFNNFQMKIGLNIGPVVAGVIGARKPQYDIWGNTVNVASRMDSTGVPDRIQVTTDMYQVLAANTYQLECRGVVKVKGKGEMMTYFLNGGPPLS

**Q.** Which results are given for CN1CCc2cccc3c2[C@H]1Cc1ccc(O)c(O)c1-3 [APOMORPHINE]?
**A.** ED50 [1]: 0.7 mg/kg; Duration [2]: 30 min

**Q.** What does the source list for CCCN1CCc2cc(O)cc3c2[C@H]1Cc1ccc(O)c(O)c1-3?
**A.** ED50 [3]: 0.72 mg/kg; Duration [4]: 180 min; Response [5]: 43.4%

**Q.** CCCN1CCc2cccc3c2[C@H]1Cc1ccc(O)c(O)c1-3 [R-N-PROPYLNORAPOMORPHINE] was tested. Which ED50 [3] did it give?
**A.** The ED50 was 0.075 mg/kg.

**Q.** And the Duration [6]?
**A.** The Duration was 180 min.

**Q.** Which ED50 [7] does the source give for CC(C)C[C@H]1C(=O)N2CCC[C@H]2[C@]2(O)O[C@](NC(=O)[C@@H]3C=C4c5cccc6[nH]c(Br)c(c56)C[C@H]4N(C)C3)(C(C)C)C(=O)N12 [BROMOCRIPTINE] here?
**A.** The ED50 was 5 mg/kg.
